{"source": "patent US6391847B1", "about": "“Method, polypeptides, nucleotide sequence of XOR-6, a vitamin D-like receptor from xenopus” (The Salk Institute for Biological Studies, priority 1995, dated 2002)", "key": {"[1]": {"tested_on": "GAL-XOR-6", "experiment": "cotransfection assay, activation of GAL-XOR6 in CV-1 cells", "type": "cell-based, Xenopus laevis", "conditions": "for rank order potency of activation, esters differing in alkyl length (FIG. 3): 10^−6M of each compound; for activation of GAL-XOR-6 by agonist cocktail: cocktail: thyroid hormone 10^−7M, vitamin D3 10^−7M, all-trans RA 10^−6M, WY-14,643 5×10^−6M", "procedure": "FIG. 3 illustrates the activation of XOR-6 by a variety of amino benzoate derivatives. Thus, 10^−6M of each compound was tested in the co-transfection assay for its ability to activate GAL-XOR6.\nIt can be concluded, therefore, that XOR-6 defines a novel RXR-dependent, ligand-mediated signalling pathway.\npCMX-GAL4-XOR6 was constructed by cloning nucleotides encoding amino acids 103 to 386 of XOR-6 into the SalI to XbaI sites of pCMX-GAL4 (see U.S. Ser. No. 08/177,740).\n(§1) CV-1 cells were maintained in DMEM containing 10% resin-charcoal stripped fetal bovine serum. Liposome-mediated transient transfections were performed using DOTAP reagent (Boehringer Manheim) at a concentration of 5 μg/ml in Opti-MEM (Gibco). After 12-18 hours, the cells were washed and fresh DMEM-10% serum was added, including receptor agonists if required. After a further 48 hour incubation, the cells were lysed and luciferase reporter gene assays and β-galactosidase transfection control assays performed. Reporter gene expression is normalized to the β-galactosidase transfection control and expressed as relative light units per O.D. per minute of β-galactosidase activity."}, "[2]": {"tested_on": "XOR-6", "experiment": "cotransfection assay, activation of XOR-6 in transfected CV-1 cells", "type": "cell-based, Xenopus laevis", "conditions": "for rank order potency of XOR-6 activation, ortho/meta/para amino ethyl benzoates: cotransfection assay; for activation of XOR-6 (agonist activity in the cotransfection assay): transfected CV-1 cells", "procedure": "A search for the XOR-6 ligand was instituted based on the presumption that the receptor and its ligand must be co-expressed at some time during development. Accordingly, an unbiased, bioassay directed screen for XOR-6 agonists was undertaken in HPLC fractionated organic extracts derived from a mixture of developmental stages. Total lipid extracts from a mixture of embryonic stages from fertilized eggs through swimming tadpoles were prepared and tested for the ability to activate both GAL-XOR6 or full-length XOR-6 in transfected CV-1 cells.\nThe total extract was partitioned between iso-octane and MeOH and again tested for bioactivity.\nA suitable eukaryotic expression vector for use herein was constructed from the commercially available vector pCDNAI-AMP (Invitrogen). This vector allows expression from the strong cytomegalovirus early promoter, and bacteriophage T7 and SP6 promoter-driven production of sense and antisense RNA, respectively.\nThe cloning strategy employed was as follows: the three endogenous NcoI sites were removed by site directed mutagenesis, the polylinker region between XhoI and XbaI was removed by double digestion, endfilling and self ligation. […] The resulting plasmid, designated pCDG1, can be linearized with NotI to produce mRNA from the bacteriophage T7 promoter. The XOR-6 protein coding region was cloned between the NcoI and BamHI sites of pCDG1 and designated pCDG-XOR6.\nas §1"}, "[3]": {"biological_target": "T1, xRXRα (Xenopus laevis, UniProt P51128)", "T1 construct": "made in house; host or cells: coupled in vitro transcription/translation (TNT, Promega)", "T1 sequence (P51128 1-488)": "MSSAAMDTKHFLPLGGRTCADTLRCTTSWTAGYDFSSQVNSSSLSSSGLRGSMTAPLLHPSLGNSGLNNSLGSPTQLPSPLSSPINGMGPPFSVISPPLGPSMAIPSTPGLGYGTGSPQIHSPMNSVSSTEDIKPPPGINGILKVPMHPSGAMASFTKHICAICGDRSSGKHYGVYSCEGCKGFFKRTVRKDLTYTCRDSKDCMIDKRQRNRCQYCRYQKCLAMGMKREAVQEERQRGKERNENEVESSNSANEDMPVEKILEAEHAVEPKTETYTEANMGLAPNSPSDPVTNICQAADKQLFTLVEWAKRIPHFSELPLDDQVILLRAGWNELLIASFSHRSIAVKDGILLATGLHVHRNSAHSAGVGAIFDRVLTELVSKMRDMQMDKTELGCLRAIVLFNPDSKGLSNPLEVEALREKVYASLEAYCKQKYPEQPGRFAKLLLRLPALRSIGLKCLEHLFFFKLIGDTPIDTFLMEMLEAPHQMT", "experiment": "protease protection assay (ligand binding), parallel experiment", "conditions": "parallel experiment with xRXRα", "excerpt": "Biol. 14:287-298 (1994) was utilized."}, "[4]": {"tested_on": "XOR6:xRXRα heterodimer", "experiment": "co-transfection experiments, responsiveness of heterodimer to two ligands", "type": "cell-based, Xenopus laevis", "conditions": "receptor dependent manner", "procedure": "Receptors were transfected into cells and incubated with the indicated concentrations of agonists.\nA potentially significant property of the XOR6:xRXRα heterodimer is its responsiveness to two ligands. […] This synergism occurs at several dilutions of the XOR-6 agonist and concentrations of 9-cis RA (see FIG. 4). […] Such complexes would be ideal candidates for responding to combinations of graded morphogenetic signals during development.\nas §1"}, "[5]": {"tested_on": "βRARE", "experiment": "interference of XOR-6 overexpression with retinoic acid signalling through βRARE in CV-1 cells", "type": "cell-based", "conditions": "1 μg expression plasmid co-transfected into CV-1 cells with 5 μg tk-β REx2-luc, all-trans retinoic acid", "procedure": "1 μg of XOR-6 expression plasmid was co-transfected into CV-1 cells with 5 μg of tk-β REx2-luc, and challenged with the indicated concentrations of all-trans retinoic acid.\nBecause XOR-6:RXR heterodimers bind well to a retinoic acid response element, βRARE, it was tested whether overexpression of XOR-6 could influence retinoic acid signalling through this element. […] This effect was strongest with full-length XOR-6 (24% of wild-type activity) but still detectable with GAL-XOR-6 (44% of wild-type activity).\nas §1"}}}
{"molecule": "CCCCOC(=O)c1ccc(N)cc1", "values": [{"measurement": "rank order potency of activation, esters differing in alkyl length (FIG. 3)", "setting": "[1]", "result": "4-amino-butyl benzoate>3-amino-ethyl benzoate>4-amino-ethyl benzoate>>4-amino methyl benzoate"}]}
{"molecule": "CCOC(=O)c1ccccc1N", "note": "[2-AEB]", "values": [{"measurement": "rank order potency of XOR-6 activation, ortho/meta/para amino ethyl benzoates", "setting": "[2]", "result": "3-AEB>4-AEB>>2-AEB"}, {"measurement": "activation of XOR-6 (agonist activity in the cotransfection assay)", "setting": "[2]", "result": "activated"}]}
{"molecule": "Nc1ccccc1C(=O)O", "note": "[2-amino benzoic acid, reference compound]", "values": [{"measurement": "activation of XOR-6 (agonist activity in the cotransfection assay)", "setting": "[2]", "result": "not possible, however, to demonstrate XOR-6 activation"}]}
{"molecule": "CCOC(=O)c1cccc(N)c1", "note": "[3-AEB]", "values": [{"measurement": "specificity of activation among an extensive collection of vertebrate nuclear receptors", "setting": "[2]", "result": "specifically activates XOR-6 alone"}, {"measurement": "activation of XOR-6 (agonist activity in the cotransfection assay)", "setting": "[2]", "result": "potent agonist"}, {"measurement": "activation of XOR-6 (agonist activity in the cotransfection assay)", "setting": "[2]; listed as meta amino ethyl benzoate", "result": "activated"}, {"measurement": "rank order potency of activation, esters differing in alkyl length (FIG. 3)", "setting": "[1]", "result": "4-amino-butyl benzoate>3-amino-ethyl benzoate>4-amino-ethyl benzoate>>4-amino methyl benzoate"}, {"measurement": "protection from trypsin cleavage", "setting": "[3]", "result": "not seen"}]}
{"molecule": "Nc1cccc(C(=O)O)c1", "note": "[3-amino benzoic acid, reference compound]", "values": [{"measurement": "activation of XOR-6 (agonist activity in the cotransfection assay)", "setting": "[2]", "result": "not possible, however, to demonstrate XOR-6 activation"}]}
{"molecule": "Nc1cccc(C(=O)O)c1O", "note": "[3-amino salicylic acid, reference compound]", "values": [{"measurement": "activation of XOR-6 (agonist activity in the cotransfection assay)", "setting": "[2]", "result": "not possible, however, to demonstrate XOR-6 activation"}]}
{"molecule": "CCOC(=O)c1ccc(N)cc1", "note": "[4-AEB, 4-amino-ethyl benzoate]", "values": [{"measurement": "rank order potency of XOR-6 activation, ortho/meta/para amino ethyl benzoates", "setting": "[2]", "result": "3-AEB>4-AEB>>2-AEB"}, {"measurement": "activation of XOR-6 (agonist activity in the cotransfection assay)", "setting": "[2]", "result": "activated"}, {"measurement": "rank order potency of activation, esters differing in alkyl length (FIG. 3)", "setting": "[1]", "result": "4-amino-butyl benzoate>3-amino-ethyl benzoate>4-amino-ethyl benzoate>>4-amino methyl benzoate"}]}
{"molecule": "Nc1ccc(C(=O)O)cc1", "note": "[4-amino benzoic acid, 4-amino-benzoic acid, reference compound]", "values": [{"measurement": "activation of XOR-6 (agonist activity in the cotransfection assay)", "setting": "[2]", "result": "not possible, however, to demonstrate XOR-6 activation"}]}
{"molecule": "COC(=O)c1ccc(N)cc1", "note": "[4-amino methyl benzoate]", "values": [{"measurement": "rank order potency of activation, esters differing in alkyl length (FIG. 3)", "setting": "[1]", "result": "4-amino-butyl benzoate>3-amino-ethyl benzoate>4-amino-ethyl benzoate>>4-amino methyl benzoate"}]}
{"molecule": "Nc1ccc(C(=O)O)c(O)c1", "note": "[4-amino salicylic acid, reference compound]", "values": [{"measurement": "activation of XOR-6 (agonist activity in the cotransfection assay)", "setting": "[2]", "result": "not possible, however, to demonstrate XOR-6 activation"}]}
{"molecule": "CC1=C(/C=C/C(C)=C\\C=C\\C(C)=C\\C(=O)O)C(C)(C)CCC1", "note": "[9-cis RA, 9-cis retinoic acid]", "values": [{"measurement": "stimulation of reporter gene expression", "setting": "[4]", "result": "stimulated reporter gene expression"}]}
{"molecule": "Cc1cccc(Nc2cc(Cl)nc(SCC(=O)O)n2)c1C", "note": "[WY-14,643, reference compound]", "values": [{"measurement": "activation of GAL-XOR-6 by agonist cocktail", "setting": "[1]", "result": "not activated"}]}
{"molecule": "CC1=C(/C=C/C(C)=C/C=C/C(C)=C/C(=O)O)C(C)(C)CCC1", "note": "[all-trans RA, all-trans retinoic acid, reference compound]", "values": [{"measurement": "activation of GAL-XOR-6 by agonist cocktail", "setting": "[1]", "result": "not activated"}]}
{"molecule": "N[C@@H](Cc1cc(I)c(Oc2ccc(O)c(I)c2)c(I)c1)C(=O)O", "note": "[thyroid hormone, reference compound]", "values": [{"measurement": "activation of GAL-XOR-6 by agonist cocktail", "setting": "[1]", "result": "not activated"}]}
{"molecule": "C=C1CC[C@H](O)C/C1=C/C=C1\\CCC[C@]2(C)[C@@H]([C@H](C)CCCC(C)C)CC[C@@H]12", "note": "[vitamin D3, reference compound]", "values": [{"measurement": "activation of GAL-XOR-6 by agonist cocktail", "setting": "[1]", "result": "not activated"}]}
{"molecule": "GAL-XOR-6: GAL4 fusion with amino acids 103 to 386 of XOR-6 (pCMX-GAL4-XOR6) (protein, left off: large carriers) RKELIMSDAAVEQRRALIKRKHKLTKLPPTPPGASLTPEQQHFLTQLVGAHTKTFDFNFTFSKNFRPIRRSSDPTQEPQATSSEAFLMLPHISDLVTYMIKGIISFAKMLPYFKSLDIEDQIALLKGSVAEVSVIRFNTVFNSDTNTWECGPFTYDTEDMFLAGFRQLFLEPLVRIHRMMRKLNVQSEEYAMMAALSIFASYRPGVCDWEKIQKLQEHIALTLKDFIDSQRPPSPQNRLLYPKIMECLTELRTVNDIHSKQLLEIWDIQPDATPLMREVFGSPE", "values": [{"measurement": "retinoic acid-responsiveness of βRARE promoter on co-expression", "setting": "[5]", "result": "44 % of wild-type activity"}]}
{"molecule": "full-length XOR-6: Xenopus Orphan Receptor 6, about 386 amino acids (SEQ ID NO:2), overexpressed from plasmid (protein) MWKVQETLVLEEEEEEEDASNSCGTGEDEDDGDPKICRACGDRATGYHFNAMTCEGCKGFFRRAVKRNLRLSCPFQNSCVINKSNRRHCQACRLKKCLDIGMRKELIMSDAAVEQRRALIKRKHKLTKLPPTPPGASLTPEQQHFLTQLVGAHTKTFDFNFTFSKNFRPIRRSSDPTQEPQATSSEAFLMLPHISDLVTYMIKGIISFAKMLPYFKSLDIEDQIALLKGSVAEVSVIRFNTVFNSDTNTWECGPFTYDTEDMFLAGFRQLFLEPLVRIHRMMRKLNVQSEEYAMMAALSIFASYRPGVCDWEKIQKLQEHIALTLKDFIDSQRPPSPQNRLLYPKIMECLTELRTVNDIHSKQLLEIWDIQPDATPLMREVFGSPE", "values": [{"measurement": "retinoic acid-responsiveness of βRARE promoter on co-expression", "setting": "[5]", "result": "24 % of wild-type activity"}]}
